Consider four molecules from US10023539B2, “Aryl-cyanoguanidine compounds” (Bayer Pharma Aktiengesellschaft, priority 2014, dated 2018).

Experiment [1] concerns the target T1, SMYD2 (Homo sapiens (Human), UniProt Q9NRG4). Briefly: Scintillation Proximity Assay (SPA) for detection of SMYD2 enzymatic inhibition. As to conditions: read-out: IC50 [mol/l] (SPA Assay). It is filed as biochemical. On the procedure: 1.1 Scintillation Proximity Assay (SPA) for Detection of SMYD2 Enzymatic Inhibition
The SMYD2 full length enzyme was produced in-house by expression (with an N-terminal 6×His tag) in E. coli and purification by affinity chromatography on a Ni-NTA Sepharose column followed by a size exclusion chromatography step on a Superdex 200 16/60 column (GE Healthcare).
To this end, 100-fold concentrated compound solutions (in DMSO) were previously prepared by serial dilution (1:3.4) of 2 mM stocks in a clear low volume 384-well source microtiter plate (Greiner Bio-One), from which 50 nl of compound solutions were transferred into a white low volume test microtiter plate from the same supplier. […] The samples were then incubated for 15 min at 22° C. to allow pre-equilibration of the putative enzyme-inhibitor complexes before the start of the methylation reaction, which was initiated by the addition of 2.5 μl 2-fold concentrated solution (in assay buffer) of titrated S-Adenosyl-L-Methionine (3H-SAM, Perkin Elmer, final concentration: 60 nM) and p53 Peptide substrate (final concentration: 1.0 μM). The resulting mixture (5 μl final volume) was shortly centrifuged (2 min., 1500 rpm) and incubated at 22° C. during 30 min. Thereupon the reaction was stopped by adding 3 μl of Streptavidin PS SPA imaging beads (Perkin Elmer, final concentration of 3.12 μg/μl) and “cold” SAM (AK Scientific, 25 μM final concentration) for non-specific binding reduction. Plates containing the stopped reaction were sealed with transparent adhesive foil (Perkin Elmer), centrifuged (2 min., 1500 rpm), and further incubated for—at least—1 h at RT (or overnight at 4° C.) in order to allow the SPA signals to develop. […] IC50 values were calculated by fitting the normalized inhibition data to a 4-parameter logistic equation using the “Screener” analysis software from Genedata.
(In a scintillation proximity assay essentially only radioactivity close to the scintillant gives light.)

The target of experiment [2] is T1, SMYD2. Briefly: In Cell Western (ICW) cell-based assay for detection of SMYD2 methylation activity. Conditions: SMYD2 overexpressing KYSE-150 cells, 72 h treatment, p53K370me1 signal; read-out: IC50 [mol/l] (ICW assay).
From the text: For the detection of SMYD2 cellular methylation activity an In Cell Western (ICW) assay was established. This assay allows rapid processing of multiple samples for SMYD2 methylation derived immunofluorescence signals, with normalization to cell number via the use of the nucleic acid dye DRAQ5. […] To detect SMYD2-mediated methylation signals in cells, a customized antibody directed against mono-methylated lysine 370 on protein p53 (p53K370me1) was used.
For conducting the ICW assay 5000 SMYD2 overexpressing KYSE-150 cells/well were seeded in 96-well plates (SIGMA) and cultivated for 24 h. As a control for maximal inhibition of ectopic methylation activity, non-transfected KYSE-150 cells were used. Cells were grown in 49% RPMI 1640 with 49% Ham's F12 media supplemented with 2% heat inactivated fetal calf serum (FCS). […] After 5 washes with PBS, the fluorescence in each well was measured on an Odyssey (LI-COR) scanner at 800 nm (p53K370me1 signal; 764 nm excitation) and 700 nm (DRAQ5 signal; 683 nm excitation). Fluorescence intensity was quantified and normalized to background and DRAQ5 signals. IC50 values were calculated by fitting the normalized inhibition data to a 4-parameter logistic equation (Minimum, Maximum, IC50, Hill; Y=Max+(Min−Max)/(1+(X/IC50)Hill)) for each tested compound. […] Ci (maximal inhibition) was defined as the signal measured for non SMYD2 overexpressing KYSE150 cells.
The mark [3] stands for this setting: methylation of biotinylated p53 Peptide, 3H-SAM, full length SMYD2.

T1 sequence (Q9NRG4 whole entry): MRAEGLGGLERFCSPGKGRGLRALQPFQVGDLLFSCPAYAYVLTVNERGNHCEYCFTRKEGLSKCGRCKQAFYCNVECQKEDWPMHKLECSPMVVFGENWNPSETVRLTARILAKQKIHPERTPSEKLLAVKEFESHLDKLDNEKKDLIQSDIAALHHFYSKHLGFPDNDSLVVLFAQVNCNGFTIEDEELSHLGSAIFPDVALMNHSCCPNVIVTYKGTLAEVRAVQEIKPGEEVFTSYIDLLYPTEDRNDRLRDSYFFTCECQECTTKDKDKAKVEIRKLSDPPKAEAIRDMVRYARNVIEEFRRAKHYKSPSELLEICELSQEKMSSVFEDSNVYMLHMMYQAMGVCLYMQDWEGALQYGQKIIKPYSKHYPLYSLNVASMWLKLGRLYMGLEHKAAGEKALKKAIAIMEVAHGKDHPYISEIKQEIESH

`CCN(C(=O)CO)C1CN(/C(=N\C#N)Nc2ccc(Cl)c(OC(F)F)c2)N=C1c1ccc(Cl)c(Cl)c1` (racemic) [Example 11, Rac-N-[1-{N-[4-chloro-3-(difluoromethoxy)phenyl]-N′-cyanocarbamimidoyl}-3-(3,4-dichlorophenyl)-4,5-dihydro-1H-pyrazol-4-yl]-N-ethyl-2-hydroxyacetamide]: the IC50 in experiment [1] (setting [3]) amounted to 144 nM; in experiment [2], 376 nM. `CCN(C(=O)[C@H](N)C(C)C)C1CN(/C(=N\C#N)Nc2cccc(OC(F)(F)F)c2F)N=C1c1ccc(Cl)c(Cl)c1` (stereo partly drawn) [Example 40, N-[1-{N′-Cyano-N-[2-fluoro-3-(trifluoromethoxy)phenyl]carbamimidoyl}-3-(3,4-dichlorophenyl)-4,5-dihydro-1H-pyrazol-4-yl]-N-ethyl-D-valinamide]: in experiment [1] (setting [3]), the IC50 turned out to be 418 nM.

For the molecule `CCN(C(=O)[C@H](N)C(C)C)C1CN(/C(=N\C#N)Nc2cccc(OC(F)F)c2)N=C1c1ccc(Cl)c(Cl)c1` (stereo partly drawn) [Example 41, N-[1-{N′-Cyano-N-[3-(difluoromethoxy)phenyl]carbamimidoyl}-3-(3,4-dichlorophenyl)-4,5-dihydro-1H-pyrazol-4-yl]-N-ethyl-D-valinamide], in experiment [1] (setting [3]), the IC50 was determined as 73.5 nM.

As to `CCN(C(=O)CO)C1CN(/C(=N\C#N)Nc2cccc(OC(F)F)c2)N=C1c1ccc(Cl)cc1` (stereo not drawn) [WO 2006/072350 Example 67 more active isomer, reference compound], in experiment [1] (comparison example versus WO 2006/072350), the IC50 stood at 548 nM.
